# Measured values reported in patent US20130295080A1, “Pharmaceutical composition for treating melasma and preparation method thereof” (Jilin Zixin Pharmaceutical Research Institution LLC, priority 2011, published 2013).
# Legend:
# Assay type in all cases: in vivo, Kunming female mice
# [1] = system: SOD in mice skins; assay: SOD in mice skins; conditions: vitamin C group, dosage 0.1, once a day for 30 d, progesterone-modeled mice
# [2] = viscosity of the whole blood of mice with progesterone-induced melasma; conditions: vitamin C group
# [3] = system: SOD in mice livers; assay: SOD in mice livers (reagent kit, spectrophotometer); conditions: vitamin C group
# [4] = system: MDA in mice skins; assay: MDA content in mice skins
# [5] = system: melanin cells in skins of mice; assay: melanin cells in skins of mice, HMB45 immunohistochemistry with image analysis; conditions: mouse skin, vitamin C group, progesterone-modeled mice
# [6] = system: NO in mice skins; assay: NO content in mice skins; conditions: vitamin C group, dosage 0.1, once a day for 30 d, progesterone-modeled mice
# [7] = system: MDA in mice livers; assay: MDA content in mice livers; conditions: vitamin C group, dosage 0.1, once a day for 30 d, progesterone-modeled mice
# [8] = dosage 0.1, once a day for 30 d, progesterone-modeled mice
# [9] = melanin-positive target, dosage 0.1, once a day for 30 d
smiles,measurement,setting,value
O=C1O[C@H]([C@@H](O)CO)C(O)=C1O [vitamin C],SOD,[1],19.95 ± 5.33
same,blood viscosity with different shear rates (mPas) 1/s,"[2]; shear rate 1/s, dosage 0.1, once a day for 30 d, progesterone-modeled mice",29.22 ± 2.18 mPas
same,blood viscosity with different shear rates (mPas) 30/s,"[2]; shear rate 30/s, dosage 0.1, once a day for 30 d, progesterone-modeled mice",11.22 ± 1.75 mPas
same,blood viscosity with different shear rates (mPas) 100/s,"[2]; shear rate 100/s, dosage 0.1, once a day for 30 d, progesterone-modeled mice",4.60 ± 1.36 mPas
same,blood viscosities with different shear rates compared with the normal control group,[2],obviously increased
same,blood viscosity with different shear rates (mPas) 3/3,[2]; [8],28.85 ± 4.35 mPas
same,SOD activities compared with the modeling control group,[3],obviously increased
same,SOD,[3]; [8],45.62 ± 16.04
same,MDA,"[4]; vitamin C group, dosage 0.1, once a day for 30 d, progesterone-modeled mice",4.20 ± 1.34
same,MDA contents compared with the modeling control group,[4]; vitamin group,obviously decreased
same,average optical density,[5]; [9],0.33 ± 0.14
same,integrated optical density,[5]; [9],1152.52 ± 344.09
same,average size of positive target,"[5]; dosage 0.1, once a day for 30 d",3720.56 ± 1191.13
same,NO,[6],1.71 ± 0.52
same,MDA,[7],4.58 ± 1.26
